What all share (assay type): cell-based
The test system of test [1] is Mouse Lewis lung carcinoma (LLC) cells. Put plainly: Proliferation assay of tumor cells (BrdU incorporation), LLC. To be noted: 48 hours, read-out: Inhibitory Activity (IC50 uM) LLC. The protocol: (§1) The antiproliferative activity of selected peptides of the present invention was assessed on several tumor cell lines. Mouse Lewis lung carcinoma (LLC) cells were routinely cultured to near confluency in DMEM media with 10% FCS added. The cells were trypsinized and plated in a 96-well plate at 5,000 cells per well per 100 μl media supplemented with 2% FCS and antibiotics. MDA-MB-231 cells were routinely cultured to near confluency in advanced DMEM media supplemented with 10% FCS. The cells were allowed to adhere to the plate for at least 12 hours. Then, whole media and various concentrations of peptide, were added to the wells. The cells were cultured for 48 hours at 37 ° C. in a 5% CO2 atmosphere. Cell proliferation was determined using a bromo-deoxyuridine (BrdU) incorporation method as described by the manufacturer. Inhibition of cell proliferation, was assessed by BrdU incorporation.
(§2) The ability of representative peptides of this invention for their ability to inhibit various tumor cells line proliferation are listed below in Table 2.
(Incorporation of labelled thymidine or its analogues reports DNA synthesis.)

The subject of the next test is MDA-MB-231 cells. Put plainly: Proliferation assay of tumor cells (BrdU incorporation), MDA-MB-231. The settings on record: MDA-MB-231 proliferation, 48 hours, read-out: Inhibitory Activity (IC50 uM) MDA-MB-231. On the procedure:
as §1, §2

The next test concerns HUVECs. The settings on record: 48 h. In short, it runs like this: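 HUVECs seeded at 5,000 cells/well in EBM with 2% FCS, adhered ≥12 hours, then stimulated with bFGF 10 ng/ml or VEGF 5 ng/ml plus varying peptide concentrations. After 48 hours at 37 ° C, 5% CO2, proliferation inhibition read by BrdU incorporation.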

One may read the IC50 as the concentration that gives 50% inhibition.

Positions of bridges follow the written chain, without caps; N, C: chain ends. Residues, ends and D or L forms follow the SMILES beside them. Chains are numbered I, II in the order given.

`CC[C@H](C)[C@H](NC(=O)[C@H](C)NC(=O)[C@@H](NC(=O)[C@H](CCCNC(=N)N)NC(=O)[C@H](CCC(N)=O)NC(=O)[C@H](CCCNC(=N)N)NC(=O)[C@H](C)NC(=O)[C@H](Cc1c[nH]cn1)NC(=O)[C@H](CCCNC(=N)N)NC(=O)[C@H](C)NC(C)=O)C(C)C)C(=O)N[C@H](C(=O)N[C@@H](Cc1ccccc1)C(=O)NCCCC[C@H](NC(=O)[C@H](Cc1ccccc1)NC(=O)[C@@H](NC(=O)[C@@H](NC(=O)[C@H](C)NC(=O)[C@@H](NC(=O)[C@H](CCCNC(=N)N)NC(=O)[C@H](CCC(N)=O)NC(=O)[C@H](CCCNC(=N)N)NC(=O)[C@H](C)NC(=O)[C@H](Cc1c[nH]cn1)NC(=O)[C@H](CCCNC(=N)N)NC(=O)[C@H](C)NC(C)=O)C(C)C)[C@@H](C)CC)[C@@H](C)CC)C(N)=O)[C@@H](C)CC` [Peptide 214] (I: Ac-ARHARQRVAIIFK-NH2 / II: Ac-ARHARQRVAIIF; amide I:13-II:C): the concentration for half-maximal inhibition (IC50) (in test [1]; with MDA-MB-231 cells; with HUVECs) was above 30 µM each time.

With `CC[C@H](C)[C@H](NC(=O)[C@H](CCCNC(=N)N)NC(=O)[C@@H](NC(=O)[C@H](CCCNC(=N)N)NC(=O)[C@H](CCC(N)=O)NC(=O)[C@H](CCCNC(=N)N)NC(=O)[C@H](Cc1c[nH]cn1)NC(=O)[C@H](Cc1c[nH]cn1)NC(=O)[C@H](CCCNC(=N)N)NC(=O)[C@H](CCCNC(=N)N)NC(C)=O)C(C)C)C(=O)N[C@H](C(=O)N[C@@H](Cc1ccccc1)C(=O)NCCCC[C@H](NC(=O)[C@H](Cc1ccccc1)NC(=O)[C@@H](NC(=O)[C@@H](NC(=O)[C@H](CCCNC(=N)N)NC(=O)[C@@H](NC(=O)[C@H](CCCNC(=N)N)NC(=O)[C@H](CCC(N)=O)NC(=O)[C@H](CCCNC(=N)N)NC(=O)[C@H](Cc1c[nH]cn1)NC(=O)[C@H](Cc1c[nH]cn1)NC(=O)[C@H](CCCNC(=N)N)NC(=O)[C@H](CCCNC(=N)N)NC(C)=O)C(C)C)[C@@H](C)CC)[C@@H](C)CC)C(N)=O)[C@@H](C)CC` [Peptide 240] (I: Ac-RRHHRQRVRIIFK-NH2 / II: Ac-RRHHRQRVRIIF; amide I:13-II:C), the half-maximal inhibitory concentration (IC50) (in test [1]; in the test with MDA-MB-231 cells; with HUVECs) was below 10 µM in each case.

In the case of `CC[C@H](C)[C@H](NC(=O)[C@H](CCCNC(=N)N)NC(=O)[C@@H](NC(=O)[C@H](Cc1c[nH]cn1)NC(=O)[C@H](CCC(N)=O)NC(=O)[C@H](CCCNC(=N)N)NC(=O)[C@H](Cc1c[nH]cn1)NC(=O)[C@H](CCCNC(=N)N)NC(=O)[C@H](CCCNC(=N)N)NC(=O)[C@H](CCCNC(=N)N)NC(C)=O)C(C)C)C(=O)N[C@H](C(=O)N[C@@H](Cc1ccccc1)C(=O)NCCCC[C@H](NC(=O)[C@H](Cc1ccccc1)NC(=O)[C@@H](NC(=O)[C@@H](NC(=O)[C@H](CCCNC(=N)N)NC(=O)[C@@H](NC(=O)[C@H](Cc1c[nH]cn1)NC(=O)[C@H](CCC(N)=O)NC(=O)[C@H](CCCNC(=N)N)NC(=O)[C@H](Cc1c[nH]cn1)NC(=O)[C@H](CCCNC(=N)N)NC(=O)[C@H](CCCNC(=N)N)NC(=O)[C@H](CCCNC(=N)N)NC(C)=O)C(C)C)[C@@H](C)CC)[C@@H](C)CC)C(N)=O)[C@@H](C)CC` [Peptide 244] (I: Ac-RRRHRQHVRIIFK-NH2 / II: Ac-RRRHRQHVRIIF; amide I:13-II:C), the half-maximal inhibitory concentration (IC50) (in test [1]; in the test with MDA-MB-231 cells; with HUVECs) was below 10 µM each time.

(Values after patent publication US20070203066A1, “Compositions and methods for inhibiting cellular proliferation” (priority 2005, published 2007).)
